What is called EC50 is the concentration needed to bring the measured effect to its halfway point. High values mean a less potent agent, low ones a more potent agent.

One experiment addresses T1, TR-β (Homo sapiens, UniProt P10828).
T1 sequence (P10828 1-461): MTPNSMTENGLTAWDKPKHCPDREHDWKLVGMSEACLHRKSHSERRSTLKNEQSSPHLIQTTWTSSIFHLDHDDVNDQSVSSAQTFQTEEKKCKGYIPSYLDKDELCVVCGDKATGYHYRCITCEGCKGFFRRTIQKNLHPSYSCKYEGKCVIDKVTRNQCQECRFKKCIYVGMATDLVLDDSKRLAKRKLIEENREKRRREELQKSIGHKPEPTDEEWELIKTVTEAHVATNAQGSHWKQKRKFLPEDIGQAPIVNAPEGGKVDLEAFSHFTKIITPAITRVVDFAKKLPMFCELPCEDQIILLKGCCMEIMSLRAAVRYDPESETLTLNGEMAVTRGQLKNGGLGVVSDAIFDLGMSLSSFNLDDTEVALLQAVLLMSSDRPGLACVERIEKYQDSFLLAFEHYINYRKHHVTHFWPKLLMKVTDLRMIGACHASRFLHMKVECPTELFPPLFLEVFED
In words: In vitro TR-β activity (in-house protocol). Conditions: for fold induction at 0.001 µM: Conc. 1 nM; for fold induction at 0.001 µM / fold induction at 0.01 µM / fold induction at 0.1 µM / fold induction at 1 µM: read-out: TR-β Fold Induction w.r.t T3(100 nm); for fold induction at 0.01 µM: Conc. 10 nM; for fold induction at 0.1 µM: Conc. 100 nM; for fold induction at 1 µM: Conc. 1000 nM. Format: cell-based. The protocol: (§1) In vitro TR-α & TR-β activities were determined as per in-house protocols and the results of representative compounds are provided in tables 1 & 2 below as a proof of the efficacies of the novel class of compounds disclosed above.

The next experiment addresses T2, TR-α (Homo sapiens, UniProt P10827).
T2 sequence (P10827 1-410 isoform P10827-2): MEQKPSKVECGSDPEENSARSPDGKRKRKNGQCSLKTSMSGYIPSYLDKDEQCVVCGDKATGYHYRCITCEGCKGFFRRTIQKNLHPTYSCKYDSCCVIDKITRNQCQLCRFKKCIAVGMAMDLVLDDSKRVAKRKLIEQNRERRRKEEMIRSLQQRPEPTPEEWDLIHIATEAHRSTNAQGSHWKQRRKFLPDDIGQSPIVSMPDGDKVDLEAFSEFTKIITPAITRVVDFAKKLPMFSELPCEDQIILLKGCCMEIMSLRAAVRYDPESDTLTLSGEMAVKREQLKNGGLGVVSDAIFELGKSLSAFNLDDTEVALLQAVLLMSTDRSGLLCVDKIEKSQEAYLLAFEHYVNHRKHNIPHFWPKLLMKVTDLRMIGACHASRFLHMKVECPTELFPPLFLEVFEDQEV
The experiment in a line: In vitro TR-α activity (in-house protocol). Format: cell-based. Particulars: for fold induction at 0.001 µM: Conc. 1 nM; for fold induction at 0.001 µM / fold induction at 0.01 µM / fold induction at 0.1 µM / fold induction at 1 µM: read-out: TR-α Fold Induction w.r.t T3(100 nm); for fold induction at 0.01 µM: Conc. 10 nM; for fold induction at 0.1 µM: Conc. 100 nM; for fold induction at 1 µM: Conc. 1000 nM. The protocol: as §1

On to `CCC(ON=Cc1cc(Br)c(Oc2ccc(O)c(Cc3ccccc3)c2)c(Br)c1)C(=O)O` (centres unmarked) [Example 17, 2-(((4-(3-benzyl-4-hydroxyphenoxy)-3,5-dibromobenzylidene)amino)oxy)butanoic acid], for which, on TR-β, the fold induction at 0.001 µM was determined as 21.2, the fold induction at 0.01 µM was found to be 31.3, the fold induction at 0.1 µM is 81.5 and the fold induction at 1 µM was found to be 85.6. Besides, on TR-α, the fold induction at 0.001 µM came out at 21.6, the fold induction at 0.01 µM stood at 38.5, the fold induction at 0.1 µM was 66.2 and the fold induction at 1 µM was determined as 109.
For `CCC(C)c1cc(Oc2c(Br)cc(C=NOCC(=O)O)cc2Br)ccc1O` (centres unmarked) [Example 6, 2-(((3,5-dibromo-4-(3-(sec-butyl)-4-hydroxyphenoxy)benzylidene)amino)oxy)acetic acid], at TR-β, the fold induction at 0.001 µM is 15.9, the fold induction at 0.01 µM worked out at 37.1, the fold induction at 0.1 µM was found to be 84 and the fold induction at 1 µM worked out at 74.6. For the same compound, on TR-α, the fold induction at 0.001 µM was 11.6, the fold induction at 0.01 µM was 39.8, the fold induction at 0.1 µM is 60.6 and the fold induction at 1 µM was determined as 64.9.
In the case of `CC(C)c1cc(Oc2c(Br)cc(C=NOC(C)(C)C(=O)O)cc2Br)ccc1O` [Example 12, 2-(((3,5-dibromo-4-(4-hydroxy-3-isopropylphenoxy)benzylidene)amino)oxy)-2-methylpropanoic acid], on TR-β, the fold induction at 0.001 µM is 39, the fold induction at 0.01 µM stood at 65.4, the fold induction at 0.1 µM came to 119 and the fold induction at 1 µM came to 67.4. At TR-α, the fold induction at 0.001 µM worked out at 24, the fold induction at 0.01 µM stood at 59.9, the fold induction at 0.1 µM came to 88.7 and the fold induction at 1 µM is 110.
For the compound `O=C(O)CON=Cc1cc(Br)c(Oc2ccc(O)c(Cc3ccccc3)c2)c(Br)c1` [Example 9, 2-(((4-(3-benzyl-4-hydroxyphenoxy)-3,5-dibromobenzylidene)amino)oxy)acetic acid], at TR-β, the fold induction at 0.001 µM is 11.5, the fold induction at 0.01 µM was determined as 17.6, the fold induction at 0.1 µM came to 60.2 and the fold induction at 1 µM was determined as 98.8. At TR-α, the fold induction at 0.001 µM stood at 10.7, the fold induction at 0.01 µM came to 10.7, the fold induction at 0.1 µM worked out at 23.8 and the fold induction at 1 µM amounted to 64.8.
For the compound `CC(C)(ON=Cc1cc(Br)c(Oc2ccc(O)c(-c3ccccc3)c2)c(Br)c1)C(=O)O` [Example 20, 2-(((3,5-dibromo-4-((6-hydroxy-[1,1′-biphenyl]-3-yl)oxy)benzylidene)amino)oxy)-2-methyl propanoic acid], on TR-β, the fold induction at 0.001 µM was determined as 8.98, the fold induction at 0.01 µM was found to be 14.8, the fold induction at 0.1 µM is 46 and the fold induction at 1 µM turned out to be 98.6. On TR-α, the fold induction at 0.001 µM turned out to be 9.45, the fold induction at 0.01 µM amounted to 13.1, the fold induction at 0.1 µM turned out to be 34.5 and the fold induction at 1 µM came to 74.3.
As to `CC(ON=Cc1cc(Br)c(Oc2ccc(O)c(-c3ccccc3)c2)c(Br)c1)C(=O)O` (centres unmarked) [Example 11, 2-(((3,5-dibromo-4-((6-hydroxy-[1,1′-biphenyl]-3-yl)oxy)benzylidene)amino)oxy)propanoic acid], on TR-β, the fold induction at 0.001 µM worked out at 16.1, the fold induction at 0.01 µM is 39.3, the fold induction at 0.1 µM is 73.8 and the fold induction at 1 µM was found to be 65.3. On TR-α, the fold induction at 0.001 µM is 16.2, the fold induction at 0.01 µM was 32.8, the fold induction at 0.1 µM was 70.2 and the fold induction at 1 µM worked out at 49.4.
On to `O=C(O)CON=Cc1cc(Br)c(Oc2ccc(O)c(C(O)c3cccc(Cl)c3)c2)c(Br)c1` (centres unmarked) [Example 35, 2-(((3,5-dibromo-4-(3-((3-chlorophenyl)(hydroxy)methyl)-4-hydroxyphenoxy)benzylidene)amino)oxy)acetic acid], for which the figures for the EC50 at TR-β and at TR-α were 4900 nM and 2100 nM, respectively.
For `CC(ON=Cc1cc(Br)c(Oc2ccc(O)c(S(=O)(=O)N3CCCCC3)c2)c(Br)c1)C(=O)O` (centres unmarked) [Example 36, 2-(((3,5-dibromo-4-(4-hydroxy-3-(piperidin-1-ylsulfonyl)phenoxy)benzylidene)amino)oxy)propanoic acid], at TR-β, the fold induction at 0.001 µM came out at 11, the fold induction at 0.01 µM is 19.7, the fold induction at 0.1 µM was 58.2 and the fold induction at 1 µM stood at 107. Besides, at TR-α, the fold induction at 0.001 µM was 14.1, the fold induction at 0.01 µM came to 15.4, the fold induction at 0.1 µM turned out to be 57.8 and the fold induction at 1 µM is 128.
For the compound `O=C(O)CON=Cc1cc(Br)c(Oc2ccc(O)c(-c3ccccc3)c2)c(Br)c1` [Example 7, 2-(((3,5-dibromo-4-((6-hydroxy-[1,1′-biphenyl]-3-yl)oxy)benzylidene)amino)oxy)acetic acid], the EC50 on TR-β is 2.9 nM; at TR-α, 5.2 nM.
For the compound `O=C(O)CON=Cc1cc(Br)c(Oc2ccc(O)c(C(=O)c3cccc(Cl)c3)c2)c(Br)c1` [Example 33, 2-(((3,5-dibromo-4-(3-(3-chlorobenzoyl)-4-hydroxyphenoxy)benzylidene)amino)oxy)acetic acid], on TR-β, the fold induction at 0.001 µM was 14, the fold induction at 0.01 µM is 30.1, the fold induction at 0.1 µM was found to be 72.5 and the fold induction at 1 µM was found to be 62.1. Also, at TR-α, the fold induction at 0.001 µM worked out at 18.7, the fold induction at 0.01 µM was found to be 32.2, the fold induction at 0.1 µM turned out to be 52.1 and the fold induction at 1 µM was 74.
Consider `CCC(C)c1cc(Oc2c(Br)cc(C=NOC(C(=O)O)c3ccccc3)cc2Br)ccc1O` (centres unmarked) [Example 18, 2-(((3,5-dibromo-4-(3-(sec-butyl)-4-hydroxyphenoxy)benzylidene)amino)oxy)-2-phenylacetic acid], for which, on TR-β, the fold induction at 0.001 µM is 13.8, the fold induction at 0.01 µM was 20.8, the fold induction at 0.1 µM turned out to be 69.5 and the fold induction at 1 µM amounted to 122. On TR-α, the fold induction at 0.001 µM is 15.5, the fold induction at 0.01 µM worked out at 36, the fold induction at 0.1 µM turned out to be 77 and the fold induction at 1 µM was 90.4.
As for `O=C(O)CON=Cc1cc(Cl)c(Oc2ccc(O)c(Cc3ccccc3)c2)c(Cl)c1` [Example 5, 2-(((4-(3-benzyl-4-hydroxyphenoxy)-3,5-dichlorobenzylidene)amino)oxy)acetic acid], at TR-β, the fold induction at 0.001 µM was 14.8, the fold induction at 0.01 µM was determined as 12, the fold induction at 0.1 µM was determined as 43.6 and the fold induction at 1 µM was 80.5. Besides, at TR-α, the fold induction at 0.001 µM is 14.2, the fold induction at 0.01 µM was 10.8, the fold induction at 0.1 µM is 28.3 and the fold induction at 1 µM was found to be 57.
Take `CC(ON=Cc1cc(Br)c(Oc2ccc(O)c(C(=O)c3cccc(Cl)c3)c2)c(Br)c1)C(=O)O` (centres unmarked) [Example 30, 2-(((3,5-dibromo-4-(3-(3-chlorobenzoyl)-4-hydroxyphenoxy)benzylidene)amino)oxy)propanoic acid]: the EC50 on TR-β stood at 166 nM; on TR-α it was 143 nM.

The values above are taken from US20110301200A1, “THYROID RECEPTOR LIGANDS” (CADILA HEALTHCARE LIMITED, priority 2008, published 2011).
